{
  "source": "patent EP0495091B1",
  "about": "(Metabasis Therapeutics Inc., priority 1990, dated 1992)",
  "key": {"[1]": {"target": "T1, calf intestinal musosa adenosine deaminase (Bos taurus, UniProt P56658)", "T1 construct": "calf intestinal musosa adenosine deaminase; from tissue; host or cells: calf intestinal mucosa", "T1 sequence (P56658 1-363)": "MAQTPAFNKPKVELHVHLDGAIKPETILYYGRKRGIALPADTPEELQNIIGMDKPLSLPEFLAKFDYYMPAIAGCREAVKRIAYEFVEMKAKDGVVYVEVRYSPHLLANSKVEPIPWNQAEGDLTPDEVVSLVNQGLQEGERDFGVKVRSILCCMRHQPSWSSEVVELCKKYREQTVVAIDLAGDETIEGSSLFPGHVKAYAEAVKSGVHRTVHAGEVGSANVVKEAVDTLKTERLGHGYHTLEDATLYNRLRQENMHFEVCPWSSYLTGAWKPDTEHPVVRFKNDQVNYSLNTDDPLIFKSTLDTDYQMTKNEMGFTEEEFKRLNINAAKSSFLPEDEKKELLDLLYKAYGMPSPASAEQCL", "assay": "Adenosine deaminase activity inhibition", "assay_type": "biochemical", "settings": "80 µM adenosine, pH 7.0, 10 minutes at 37°C", "method": "Different concentrations of the test compounds were incubated in the assay mixture for 10 minutes at 37°C. The reaction was monitored continuously for oxidation of NADH from the change in absorbance at 340 nm."}, "ischemic rat hearts": {"tested_on": "ischemic rat hearts", "assay": "Rat heart ischemia model, tissue adenosine levels", "assay_type": "in vivo, rats", "settings": "intraperitoneal injection, hearts excised after 60 minutes, incubated 60 minutes at 37°C, HPLC", "method": "Male rats were injected intraperitonealy with either the AICA riboside analog, AICA riboside or saline, as a control. After 60 minutes, the hearts were excised and incubated at 37°C for a further 60 minutes. Tissue extracts were prepared and analyzed for adenosine by high performance liquid chromatography (HPLC). […]"}, "[2]": {"tested_on": "longitudinal muscle from the guinea pig ileum", "assay": "Inhibition of stimulated contraction in isolated ileum", "settings": "concentration which inhibited electrically stimulated contraction by 50%, read-out: IC50", "quoted_text": "Parallel platinum electrodes were used to deliver electrical current at 1 minute intervals at a voltage adequate to induce contraction of 90% of maximal."}, "[3]": {"tested_on": "platelet aggregation in human whole blood", "assay": "Inhibition of platelet aggregation in human whole blood", "assay_type": "cell-based", "settings": "Homo sapiens, Platelet; 10 minutes at 37°C; 10 µM adenosine added 5 minutes before; ADP (6-25 µM) induced; impedance technique", "method": "Whole blood was drawn from healthy donors and collected in 0.1 vol. of sodium citrate to prevent coagulation. Platelet aggregation was measured by the impedance technique using a Whole Blood Aggregometer."}, "[4]": {"assay": "Oral bioavailability and half-life in fasted adult beagles", "settings": "beagle, dog, in vivo, fasted adult beagles", "method": "Heparinized blood and urine were collected at selected intervals over 24 hours. Each sample was chilled, centrifuged at 4°C and frozen prior to HPLC analysis."}, "[5]": {"tested_on": "coronary endothelial cells", "assay": "Inhibition of adenosine utilization in cell culture", "assay_type": "cell-based", "settings": "Endothelial cell, 1 µM [3H] adenosine, 15 minutes, read-out: Inhibition of Adenosine Utilization (%)", "method": "Inhibition of adenosine utilization was determined by measuring the concentration of extracellular adenosine by scintillation counting following separation by thin layer chromatography (TLC)."}, "[6]": {"target": "T2, NBTI-specific adenosine transport site (Homo sapiens, UniProt Q99808)", "T2 construct": "incubated for 30 minutes with 0.5 mg neuronal membrane protein together with 0.5 nM [^3H]-NBTI; from tissue", "T2 sequence (Q99808 1-456)": "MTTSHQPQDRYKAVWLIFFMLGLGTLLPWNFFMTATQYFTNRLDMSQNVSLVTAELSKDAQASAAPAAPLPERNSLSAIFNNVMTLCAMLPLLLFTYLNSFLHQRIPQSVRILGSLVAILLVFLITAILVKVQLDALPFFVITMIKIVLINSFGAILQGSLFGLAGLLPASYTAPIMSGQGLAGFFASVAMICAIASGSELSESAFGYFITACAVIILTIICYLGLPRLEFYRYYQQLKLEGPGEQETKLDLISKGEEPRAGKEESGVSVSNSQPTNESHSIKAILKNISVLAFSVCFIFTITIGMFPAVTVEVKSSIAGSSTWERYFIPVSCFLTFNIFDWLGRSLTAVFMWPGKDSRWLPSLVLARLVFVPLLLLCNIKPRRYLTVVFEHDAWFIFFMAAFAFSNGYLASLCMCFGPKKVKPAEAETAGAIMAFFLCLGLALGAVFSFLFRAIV", "assay": "[3H]-NBTI binding assay", "settings": "50% displacement of bound [3H]-NBTI (0.5 nM); neuronal membrane protein, 30 minutes, pH 7.4, room temperature; read-out: ED50 (the source's name)", "method": "Increasing concentrations of the test compounds were incubated for 30 minutes with 0.5 mg neuronal membrane protein together with 0.5 nM [^3H]-NBTI in a Tris buffer (pH 7.4) at room temperature. The assays were quenched and membranes collected by rapid filtration. Filters were then solubilized and radioactivity determined by scintillation counting."}, "[7]": {"tested_on": "coronary endothelial cells", "assay": "Adenosine release from isolated cells under net ATP breakdown", "assay_type": "cell-based", "settings": "50 µM test compound", "method": "In this experimental model the cells were treated with 50 µM of the test compound and incubated for 16 hours at 37°C. Cells were then washed with phosphate-buffered saline and resuspended in standard culture medium containing no glucose (to inhibit glycolysis), 50 µM antimycin A (to inhibit oxidative phosphorylation) and 20 µM deoxycoformycin (to inhibit adenosine utilization by adenosine deaminase). This treatment was designed to simulate ischemic condition by inducing net ATP breakdown. Media was then processed for HPLC."}, "Isolated rat hearts": {"tested_on": "Isolated rat hearts", "assay": "Improved functional recovery in isolated hearts (Langendorff, post-ischemic LVDP)", "settings": "30 min ischemia, 30 min reperfusion, number in brackets = hearts", "method": "Isolated rat hearts were cannulated via the ascending aorta and attached to a perfusion apparatus according to the method of Langendorff. The hearts were perfused at a constant pressure of 100 cm of H2O with a modified Krebs-Henseleit buffer (pH 7.4) at 37°C. As a measure of heart function, left ventricular developed pressure (LVDP) was continuously monitored. Following equilibration of the hearts for a period of 30 min., the hearts were subjected to reduced flow i.e. ischemia, by reducing the pressure to 10 cm of H2O for 30 min. Flow was then restored by returning the pressure to its original level (100 cm of H2O) for a further 30 min."}, "male Mongolian gerbils": {"tested_on": "male Mongolian gerbils", "assay": "Experimental stroke model (gerbil brain ischemia)", "assay_type": "in vivo", "settings": "pretreatment with 500 mg/kg; bilateral carotid occlusion for 5 minutes; histology after seven days", "method": "In this test, male Mongolian gerbils were anesthetized with 2-3% halothane in N20:02 and the common carotid arteries exposed. Ischemia was then induced by bilateral occlusion of both common carotid arteries for 5 minutes. Seven days following the ischemic insult, brains were removed and processed for histology."}, "[8]": {"settings": "cited from earlier work"}},
  "note": "“And” between values parts separate entries of the source, which are not always exact repeats. Equal values may be shown once. Read-outs that look alike come from different tables or passages of the source.",
  "data": [
    {"smiles": "CO[C@@H]1[C@H](O)[C@@H](CO)O[C@H]1n1cnc(C(N)=O)c1N", "note": "[Compound No. 20, 5-Amino-1-(2-O-methyl-β-D-ribofuranosyl)-imidazole-4-carboxamide]", "values": [
      {"measurement": "IC50", "setting": "[1]", "result": 1400, "unit": "µM"}
    ]},
    {"smiles": "Nc1c(C(=O)NN2CCCCC2)ncn1[C@@H]1O[C@H](CO)[C@@H](O)[C@H]1O", "note": "[Compound No. 36, 5-amino-4-(1-piperidinocarbamoyl)-1-β-D-ribofuranosylimidazole]", "values": [
      {"measurement": "Tissue Adenosine Levels (% Increase vs. Saline)", "setting": "ischemic rat hearts", "result": 34, "unit": "%"}
    ]},
    {"smiles": "NC(=O)c1ncn([C@@H]2O[C@H](CO)[C@@H](O)[C@H]2O)c1N", "note": "[Compound No. 1, 5-amino-1-beta-D-ribofuranosylimidazole-4-carboxamide, reference compound]", "values": [
      {"measurement": "IC50", "setting": "[2]; Cavia porcellus", "result": "> 1000", "unit": "µM"},
      {"measurement": "IC50", "setting": "[3]", "result": 2700, "unit": "µM"},
      {"measurement": "bioavailability", "setting": "[4]; oral, 10 mg/kg IV bolus and 20 mg/kg solution via stomach tube, read-out: Absolute Oral Bioavailability %", "result": 8, "unit": "%"},
      {"measurement": "half-life", "setting": "[4]", "result": 21, "unit": "min"},
      {"measurement": "inhibition at 5 µM", "setting": "[5]; 5 µM test compound", "result": "5 ± 2", "unit": "%"},
      {"measurement": "inhibition at 50 µM", "setting": "[5]; 50 µM test compound", "result": "10 ± 1", "unit": "%"},
      {"measurement": "EC50", "setting": "[6]", "result": "> 1000", "unit": "µM"},
      {"measurement": "Extracellular Adenosine Levels", "setting": "[7]; 16 hours at 37°C, then no glucose, antimycin A, deoxycoformycin", "result": "1.64 ± 0.12", "unit": "µM"},
      {"measurement": "Extracellular Adenosine Increase (%)", "setting": "[7]; 16 hours, increase versus control", "result": 15.5, "unit": "%"},
      {"measurement": "Function Recovery % Baseline LVDP (% of hearts)", "setting": "Isolated rat hearts; 5 µM in perfusion buffer", "result": "64.2±1.5 (6) %"},
      {"measurement": "Function Recovery % Baseline LVDP (% of hearts)", "setting": "Isolated rat hearts; 20 µM in perfusion buffer", "result": "79.4±1.3 (34) %"},
      {"measurement": "Tissue Adenosine Levels (% Increase vs. Saline)", "setting": "ischemic rat hearts", "result": 30, "unit": "%"}
    ]},
    {"smiles": "CCO[C@@H]1[C@H](O)[C@@H](CO)O[C@H]1n1cnc(C(N)=O)c1N", "note": "[Compound No. 34, 5-amino-1-(2-O-ethyl-β-D-ribofuranosyl)-4-imidazole carboxamide]", "values": [
      {"measurement": "IC50", "setting": "[1]", "result": 510, "unit": "µM"}
    ]},
    {"smiles": "Nc1c(C(=O)NC2CCCC2)ncn1[C@@H]1O[C@H](CO)[C@@H](O)[C@H]1O", "note": "[Compound No. 10, 5-Amino-1-beta-D-ribofuranosylimidazole-4-N-(cyclopentyl)carboxamide]", "values": [
      {"measurement": "EC50", "setting": "[6]", "result": 350, "unit": "µM"},
      {"measurement": "Function Recovery % Baseline LVDP (% of hearts)", "setting": "Isolated rat hearts; 5 µM in perfusion buffer", "result": "83.7±0.7 (6) %"},
      {"measurement": "Function Recovery % Baseline LVDP (% of hearts)", "setting": "Isolated rat hearts; 20 µM in perfusion buffer", "result": "84.5±3.5 (2) %"},
      {"measurement": "Tissue Adenosine Levels (% Increase vs. Saline)", "setting": "ischemic rat hearts; listed as 10 (1-186)", "result": "79% and 68%"},
      {"measurement": "effect in a gerbil model of brain ischemia (hippocampal pyramidal cell survival)", "setting": "male Mongolian gerbils", "result": "protective effects"}
    ]},
    {"smiles": "Nc1c(C(=O)NC2CC2)ncn1[C@@H]1O[C@H](CO)[C@@H](O)[C@H]1O", "note": "[Compound No. 12, 5-Amino-1-beta-D-ribofuranosylimidazole-4-N-(cyclopropyl)carboxamide]", "values": [
      {"measurement": "IC50", "setting": "[2]", "result": 400, "unit": "µM"},
      {"measurement": "Tissue Adenosine Levels (% Increase vs. Saline)", "setting": "ischemic rat hearts", "result": 29, "unit": "%"}
    ]},
    {"smiles": "Nc1c(C(=O)NCc2ccccc2)ncn1[C@@H]1O[C@H](CO)[C@@H](O)[C@H]1O", "note": "[Compound No. 11, 5-Amino-1-beta-D-ribofuranosylimidazole-4-N-(benzyl)carboxamide]", "values": [
      {"measurement": "IC50", "setting": "[2]", "result": 200, "unit": "µM"},
      {"measurement": "Function Recovery % Baseline LVDP (% of hearts)", "setting": "Isolated rat hearts; 5 µM in perfusion buffer", "result": "77.2±5.8 (7) %"},
      {"measurement": "Function Recovery % Baseline LVDP (% of hearts)", "setting": "Isolated rat hearts; 20 µM in perfusion buffer", "result": "85.7±6.2 (3) %"},
      {"measurement": "Tissue Adenosine Levels (% Increase vs. Saline)", "setting": "ischemic rat hearts; listed as 11 (1-226)", "result": "53% and 45%"},
      {"measurement": "effect in a gerbil model of brain ischemia (hippocampal pyramidal cell survival)", "setting": "male Mongolian gerbils", "result": "protective effects"}
    ]},
    {"smiles": "Nc1ncnc2c1ncn2[C@@H]1O[C@H](CO)[C@@H](O)[C@H]1O", "note": "[adenosine]", "values": [
      {"measurement": "half life of adenosine in blood", "setting": "[8]", "result": "< 0.167", "unit": "min"}
    ]}
  ]
}
